What was measured:
[1] = system: ABUTH (Velvetleaf); experiment: Postemergence herbicidal evaluation; assay type: in vivo, Abutilon theophrasti
Description: (§1) In the tests, seedling plants are grown in jiffy flats for about two weeks. The test compounds are dispersed in 50/50 acetone/water mixtures containing 0.5% TWEEN®20, a polyoxyethylene sorbitan monolaurate surfactant of Atlas Chemical Industries, in sufficient quantities to provide the equivalent of about 0.0156 kg to 0.500 kg per hectare of active compound when applied to the plants through a spray nozzle operating at 40 psi for a predetermined time. After spraying, the plants are placed on greenhouse benches and are cared for in accordance with conventional greenhouse procedures. From four to five weeks after treatment, the seedling plants are examined and rated according to the rating system set forth below. Where more than one test is involved for a given compound, the data are averaged.
(§2) Plant species employed in these evaluations are reported by header abbreviation, common name and scientific name.
(§3) Results of herbicide evaluation are expressed on a rating scale (0-9). The scale is based upon a visual observation of plant stand, vigor, malformation, size, chlorosis and overall plant appearance as compared with a control.

[2] = system: AMBEL (Ragweed, Common); experiment: Postemergence herbicidal evaluation; assay type: in vivo, Ambrosia artemisifolia
Description: as §1, §2, §3

[3] = system: CASOB (Sicklepod); experiment: Postemergence herbicidal evaluation; assay type: in vivo, Cassia obtusifolia
How it was run: (§4)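 Two-week-old seedlings sprayed with compound in 50/50 acetone/water plus 0.5% TWEEN 20, at about 0.0156 to 0.500 kg/ha, nozzle at 40 psi. Kept in greenhouse; rated visually 4-5 weeks after treatment on a 0-9 scale versus control, repeat tests averaged.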

[4] = system: CHEAL (Lambsquarters, Common); experiment: Postemergence herbicidal evaluation; assay type: in vivo, Chenopodium album
How it was run: as §4

[5] = system: GALAP (Galium); experiment: Postemergence herbicidal evaluation; assay type: in vivo, Galium aparine
How it was run: as §4

[6] = system: IPOHE (Morningglory, Ivyleaf); experiment: Postemergence herbicidal evaluation; assay type: in vivo, Ipomoea hederacea
Description: as §1, §2, §3

[7] = system: ECHCG (Barnyardgrass); experiment: Postemergence herbicidal evaluation; assay type: in vivo, Echinochloa crus-galli
Description: as §1, §2, §3

[8] = system: SETVI (Foxtail, Green); experiment: Postemergence herbicidal evaluation; assay type: in vivo, Setaria viridis
Description: as §1, §2, §3

[9] = system: GLXMAW (Soybean, Williams); experiment: Postemergence herbicidal evaluation; assay type: in vivo, Glycine max, (L.) Merr. cv Williams
Description: as §1, §2, §3

[10] = system: ORYSAT (Rice, Tebonnet); experiment: Postemergence herbicidal evaluation; assay type: in vivo, Oryza sativa, (L.) Tebonnet
How it was run: as §4

[11] = system: TRZAWR (Wheat, Winter, cv Riband); experiment: Postemergence herbicidal evaluation; assay type: in vivo, Triticum aestivum
Description: as §1, §2, §3

[12] = system: ZEAMX (Corn, Field); experiment: Postemergence herbicidal evaluation; assay type: in vivo, Zea mays
How it was run: as §4

[13] = system: ECHORC (Watergrass (Calif.)); experiment: Preemergence weed control under flooded paddy conditions; assay type: in vivo, Echinochloa oryzoides; conditions: rated 3-4 weeks after treatment
Description: as §3
(§5) Preemergence herbicidal activity under flooded paddy conditions is determined as follows: plant seeds or propagating organs are planted in the top 0.5 cm of silt loam soil in 32 oz. plastic containers with a diameter of 10.5 cm and no drainage holes. Water is added to these containers and maintained at 1.5 to 3 cm above the soil surface for the duration of the experiment. The test compounds are applied as aqueous/acetone mixtures 50/50 v/v pipetted directly into the flood water to give the equivalent of about 0.0313 to 0.500 kg/ha of active ingredient. The treated containers are placed on greenhouse benches and cared for in accordance with conventional greenhouse procedures. Three to four weeks after treatment, the test is terminated and each container is examined and herbicidal effect rated according to the rating system provided in Example 37. The compounds evaluated are reported by compound number given in Example 37.
(§6) Plant species employed in this example are reported by header abbreviation, common name and scientific name.

[14] = system: CYPIR (Rice Flatsedge); experiment: as above; assay type: in vivo, Cyperus iria; conditions: rated 3-4 weeks after treatment
Description: as §3, §5, §6

[15] = system: CYPSE (Flatsedge); experiment: as above; assay type: in vivo, Cyperus serotinus; conditions: rated 3-4 weeks after treatment
How it was run: (§7)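 Seeds or propagules sown in top 0.5 cm of silt loam soil, flooded 1.5 to 3 cm above surface throughout. Compound in 50/50 v/v aqueous/acetone pipetted into flood water at about 0.0313 to 0.500 kg/ha. Visual 0-9 rating versus control after three to four weeks in greenhouse.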

[16] = system: MOOVA (Monochoria); experiment: as above; assay type: in vivo, Monochoria vaginalis; conditions: rated 3-4 weeks after treatment
Description: as §3, §5, §6

[17] = system: SAGPY (Arrowhead (Pygmaea)); experiment: as above; assay type: in vivo, Sagittaria pygmaea; conditions: rated 3-4 weeks after treatment
How it was run: as §7

[18] = system: ECHORC (Watergrass (Calif.)); experiment: Postemergence weed control under flooded paddy conditions; assay type: in vivo, Echinochloa oryzoides; conditions: postemergence weeds, 3-4 weeks after treatment
From the text: as §3
(§8) Plastic containers containing weeds which are 3 to 5 cm tall and rice seedlings at the 1.5 to 2.5 leaf stage are flooded with water. The water is maintained at 1.5 to 3 cm above the soil surface for the duration of the experiment. Test compounds are applied as aqueous/ acetone mixtures 50/50 v/v directly into the flood water to provide the equivalent of about 0.0313 to 0.500 kg/ha of active ingredient. The treated containers are placed on greenhouse benches and cared for in accordance with conventional greenhouse procedures. Three to four weeks after treatment, the test is terminated and each container is examined and herbicidal effect rated according to the rating system provided in Example 37. The compounds evaluated are reported by compound number given in Example 37.

[19] = system: CYPIR (Rice Flatsedge); experiment: as above; assay type: in vivo, Cyperus iria; conditions: postemergence weeds, 3-4 weeks after treatment
From the text: as §3, §8

[20] = system: CYPSE (Flatsedge); experiment: as above; assay type: in vivo, Cyperus serotinus; conditions: postemergence weeds, 3-4 weeks after treatment
From the text: as §3, §8

[21] = system: MOOVA (Monochoria); experiment: as above; assay type: in vivo, Monochoria vaginalis; conditions: postemergence weeds, 3-4 weeks after treatment
From the text: as §3, §8

[22] = system: SAGPY (Arrowhead (Pygmaea)); experiment: as above; assay type: in vivo, Sagittaria pygmaea; conditions: postemergence weeds, 3-4 weeks after treatment
From the text: as §3, §8

Structure (SMILES): CCOC(=O)CN1C(=O)C(CC(=O)NC)SC1=Nc1cc(-n2c(=O)cc(C(F)(F)F)n(C)c2=O)c(F)cc1Cl (stereo not shown) [Compound 57, Ethyl 2-{{2-chloro-5-[3,6-dihydro-3-methyl-2,6-dioxo-4-(trifluoromethyl)-1(2H)-pyrimidinyl]-4-fluorophenyl}imino}-5-[(methylcarbamoyl)methyl]-4-oxo-3-thiazolidineacetate]
- Postemergence herbicidal rating ABUTH ([1]; Rate 0.0158 kg/ha): 9.0
- Postemergence herbicidal rating ABUTH ([1]; Rate 0.0315 kg/ha): 9.0
- Postemergence herbicidal rating ABUTH ([1]; Rate 0.0630 kg/ha): 9.0
- Postemergence herbicidal rating AMBEL ([2]; Rate 0.0158 kg/ha): 9.0
- Postemergence herbicidal rating AMBEL ([2]; Rate 0.0315 kg/ha): 9.0
- Postemergence herbicidal rating AMBEL ([2]; Rate 0.0630 kg/ha): 9.0
- Postemergence herbicidal rating CASOB ([3]; Rate 0.0158 kg/ha): 2.0
- Postemergence herbicidal rating CASOB ([3]; Rate 0.0315 kg/ha): 2.0
- Postemergence herbicidal rating CASOB ([3]; Rate 0.0630 kg/ha): 6.0
- Postemergence herbicidal rating CHEAL ([4]; Rate 0.0158 kg/ha): 9.0
- Postemergence herbicidal rating CHEAL ([4]; Rate 0.0315 kg/ha): 9.0
- Postemergence herbicidal rating CHEAL ([4]; Rate 0.0630 kg/ha): 9.0
- Postemergence herbicidal rating GALAP ([5]; Rate 0.0158 kg/ha): 4.0
- Postemergence herbicidal rating GALAP ([5]; Rate 0.0315 kg/ha): 6.0
- Postemergence herbicidal rating GALAP ([5]; Rate 0.0630 kg/ha): 5.0
- Postemergence herbicidal rating IPOHE ([6]; Rate 0.0158 kg/ha): 9.0
- Postemergence herbicidal rating IPOHE ([6]; Rate 0.0315 kg/ha): 9.0
- Postemergence herbicidal rating IPOHE ([6]; Rate 0.0630 kg/ha): 9.0
- Postemergence herbicidal rating ECHCG ([7]; Rate 0.0158 kg/ha): 1.0
- Postemergence herbicidal rating ECHCG ([7]; Rate 0.0315 kg/ha): 1.0
- Postemergence herbicidal rating ECHCG ([7]; Rate 0.0630 kg/ha): 1.0
- Postemergence herbicidal rating SETVI ([8]; Rate 0.0158 kg/ha): 2.0
- Postemergence herbicidal rating SETVI ([8]; Rate 0.0315 kg/ha): 4.0
- Postemergence herbicidal rating SETVI ([8]; Rate 0.0630 kg/ha): 5.0
- Postemergence herbicidal rating GLXMAW ([9]; Rate 0.0158 kg/ha): 6.5
- Postemergence herbicidal rating GLXMAW ([9]; Rate 0.0315 kg/ha): 6.5
- Postemergence herbicidal rating GLXMAW ([9]; Rate 0.0630 kg/ha): 9.0
- Postemergence herbicidal rating ORYSAT ([10]; Rate 0.0158 kg/ha): 1.5
- Postemergence herbicidal rating ORYSAT ([10]; Rate 0.0315 kg/ha): 2.5
- Postemergence herbicidal rating ORYSAT ([10]; Rate 0.0630 kg/ha): 3.0
- Postemergence herbicidal rating TRZAWR ([11]; Rate 0.0158 kg/ha): 3.0
- Postemergence herbicidal rating TRZAWR ([11]; Rate 0.0315 kg/ha): 4.0
- Postemergence herbicidal rating TRZAWR ([11]; Rate 0.0630 kg/ha): 4.0
- Postemergence herbicidal rating ZEAMX ([12]; Rate 0.0158 kg/ha): 4.5
- Postemergence herbicidal rating ZEAMX ([12]; Rate 0.0315 kg/ha): 5.0
- Postemergence herbicidal rating ZEAMX ([12]; Rate 0.0630 kg/ha): 5.0
- Herbicidal rating ECHORC ([13]; 0.0313 kg/ha): 0.0
- Herbicidal rating ECHORC ([13]; 0.0625 kg/ha): 2.0
- Herbicidal rating ECHORC ([13]; 0.1250 kg/ha): 2.0
- Herbicidal rating ECHORC ([13]; 0.2500 kg/ha): 5.0
- Herbicidal rating CYPIR ([14]; 0.0313 kg/ha): 0.0
- Herbicidal rating CYPIR ([14]; 0.0625 kg/ha): 9.0
- Herbicidal rating CYPIR ([14]; 0.1250 kg/ha): 9.0
- Herbicidal rating CYPIR ([14]; 0.2500 kg/ha): 9.0
- Herbicidal rating CYPSE ([15]; 0.0313 kg/ha): 0.0
- Herbicidal rating CYPSE ([15]; 0.0625 kg/ha): 0.0
- Herbicidal rating CYPSE ([15]; 0.1250 kg/ha): 0.0
- Herbicidal rating CYPSE ([15]; 0.2500 kg/ha): 3.0
- Herbicidal rating MOOVA ([16]; 0.0313 kg/ha): 9.0
- Herbicidal rating MOOVA ([16]; 0.0625 kg/ha): 9.0
- Herbicidal rating MOOVA ([16]; 0.1250 kg/ha): 9.0
- Herbicidal rating MOOVA ([16]; 0.2500 kg/ha): 9.0
- Herbicidal rating SAGPY ([17]; 0.0313 kg/ha): 0.0
- Herbicidal rating SAGPY ([17]; 0.0625 kg/ha): 0.0
- Herbicidal rating SAGPY ([17]; 0.1250 kg/ha): 0.0
- Herbicidal rating SAGPY ([17]; 0.2500 kg/ha): 6.0
- Herbicidal rating ECHORC ([18]; rate 0.0313 kg/ha): 0.0
- Herbicidal rating ECHORC ([18]; rate 0.0625 kg/ha): 2.0
- Herbicidal rating ECHORC ([18]; rate 0.1250 kg/ha): 2.0
- Herbicidal rating ECHORC ([18]; rate 0.2500 kg/ha): 5.0
- Herbicidal rating CYPIR ([19]; rate 0.0313 kg/ha): 0.0
- Herbicidal rating CYPIR ([19]; rate 0.0625 kg/ha): 9.0
- Herbicidal rating CYPIR ([19]; rate 0.1250 kg/ha): 9.0
- Herbicidal rating CYPIR ([19]; rate 0.2500 kg/ha): 9.0
- Herbicidal rating CYPSE ([20]; rate 0.0313 kg/ha): 0.0
- Herbicidal rating CYPSE ([20]; rate 0.0625 kg/ha): 0.0
- Herbicidal rating CYPSE ([20]; rate 0.1250 kg/ha): 0.0
- Herbicidal rating CYPSE ([20]; rate 0.2500 kg/ha): 3.0
- Herbicidal rating MOOVA ([21]; rate 0.0313 kg/ha): 9.0
- Herbicidal rating MOOVA ([21]; rate 0.0625 kg/ha): 9.0
- Herbicidal rating MOOVA ([21]; rate 0.1250 kg/ha): 9.0
- Herbicidal rating MOOVA ([21]; rate 0.2500 kg/ha): 9.0
- Herbicidal rating SAGPY ([22]; rate 0.0313 kg/ha): 0.0
- Herbicidal rating SAGPY ([22]; rate 0.0625 kg/ha): 0.0
- Herbicidal rating SAGPY ([22]; rate 0.1250 kg/ha): 0.0
- Herbicidal rating SAGPY ([22]; rate 0.2500 kg/ha): 6.0
